Experimental data: patent publication US9962403B2, “Formulation drug of sodium ion and calcium ion for treating cancer, tumor and nonmalignancy” (priority 2011, dated 2018)
Read-outs that look alike come from different tables or passages of the source.

Experiments:
[1] = for toxicity of high concentration solutions injected intramuscularly: paralysis of legs, cardiovascular and pulmonary failure, death
Description: First, potential roles of Na^+, K^+, Ca^2+ and Mg^2+ in treatment of tumor and cancer were tested. In vivo experiments in BALB/c mice were performed. High concentration solutions of Na^+, K^+, Ca^2+ and Mg^2+ were injected intramuscularly. […] Experiments were focused on high concentrations of Na^+ and Ca^2+ solutions.
At the beginning, in vivo toxicity of high concentrations of Na^+, Ca^2+, K^+, and Mg^2+ in BALB/c mice was examined.
BALB/c mice were housed and inbreeded in the contracted university animal facilities that was in accordance with the NIH regulation. Body weight of the BALB/c mice at the experiment was 30±g. The toxicity test was performed using intramuscular injection with 0.2ml of 35% NaCl, 35% CaCl2, 34% KCl or 35% MgCl2 in a mouse, respectively.
In total, 20 BALB/c mice (10 males and 10 females) were randomly divided into 5 groups, with 4 mice in each group.

tumors = test: Earlier intratumoral injection of arsenic; type: in vivo, mice
Text: An occasional opportunity sparked this invention. […] One day, the inventor went shopping in a Chinese supermarket and bought a dozen salted duck eggs. On the way back home, […] wondered why these salted duck eggs could be preserved at room temperature for years without rotting. The answer is that proteins and yolks in salted duck eggs are coagulated or clotted by high concentration of salt (sodium chloride), in particular by high concentration of sodium ions. The inventor linked this phenomenon to cell biology, cell physiology, membrane potential, ion science and cancer treatment, and presumed that high concentrations of sodium chloride might coagulate or clot proteins in cancer cells like what occurs in salted duck eggs.

[2] = tested on: MCA207 mouse sarcoma, MC38 mouse colorectal cancer and B16F1 mouse melanoma; conditions: for occurrence of tumor necrosis: high concentrations, evaluated 24, 48 and 72 hours after treatment; for average necrosis of all treated tumors: 48 hours
Description: Three animal tumor models of MCA207 mouse sarcoma, MC38 mouse colorectal cancer and B16F1 mouse melanoma were established in C57BL6 mice. The treatment of intratumoral injection started when tumors reached 8mm×8mm in size.
Thirty-six C57BL6 tumor mice were randomly divided into three groups according to tumor types (12 animals in each group). Then, animals in each group were further divided into 4 subgroups (3 tumor mice in each subgroup). Tumor animals in subgroup-1, as the control, were treated by intratumoral injection with 0.1ml of normal saline. Tumor animals in subgroup-2 were treated by intratumoral injection with 0.1ml of various concentrations of sodium chloride solution.
Twenty-four, 48 and 72 hours after treatment, experimental results were evaluated by measuring the dimension of necrotic area of the treated tumors using a ruler.

[3] = tested on: MCF7 human breast cancer cells; test: Fluorescent labeled Na+/Ca2+ probe technique, influx and death of cancer cells; type: cell-based
Text: Fluorescent labeled ion probe technique was used in study of the influx of Na^+ and Ca^2+ from the extracellular fluid into intracellular fluid of cancer cells.

[4] = tested on: 18 types of human cancer cell lines; test: Ex vivo killing test in tissue culture (Trypan blue exclusion or flow cytometry); type: cell-based
Description: Tumor cells were cultured in DMEM or RPMI1640 medium supplemented with 10% fetal bovine serum (FCS). The medium in the control group was free of the “medicinal ion bomb” solution. […] Mortality of cancer cells was evaluated by Trypan blue exclusion test or flow cytometry.
The role of the “medicinal ion bomb” in killing cancer cells was tested in tissue culture. Cancer cells were seeded in Petri dish using DMEM or RPMI1640 medium supplemented with 10% FCS. Each type of cancer cell line was prepared at 2×10^6 cells/ml in a 5ml plastic tube. […] Three to five minutes later, 0.5% Trypan Blue was added and mixed with the cell suspension for 2 minutes. The number of dead cancer cells was counted under an inverted microscope. Selected samples of treated cancer cell suspension for flow cytometer were prepared in phosphate-buffered saline (PBS) and mortality of cells was assayed using flow cytometer (Beckman Coulter Inc., CA).

multiple glomus tumors = conditions: 23.4% solution; 4 sessions of intralumenal injection in 6 months; one patient; cited from earlier work
liver tumor = conditions: 36.5% hypertonic saline; cited from earlier work
[5] = 0.2ml of 35% NaCl, 35% CaCl2, 34% KCl or 35% MgCl2, mouse 30 g

[Cl-].[K+] [KCl]
outcome of animals after intramuscular injection [1, 5]: died from cardiopulmonary failure 3 hours after treatment | toxicity of high concentration solutions injected intramuscularly [1]: toxic

[Cl-].[Cl-].[Mg+2] [MgCl2]
outcome of animals after intramuscular injection ([1]; mouse, in vivo): not well absorbed | toxicity of high concentration solutions injected intramuscularly [1]: toxic

[AsH3] [arsenic]
treatment outcome (tumors): did not work well

[Ca+2].[Cl-].[Cl-] [calcium chloride solution, calcium chloride]
maximal effective treatment concentration ([2]; Ca2+ alone or in combination, intratumoral injection, room temperature): 6.0 M | local toxicity at the injection site ([2]; high concentration of calcium chloride solution): toxic that causes unhealed wound at the injection site | occurrence of tumor necrosis [2]: necrosis occurred in all tumors | necrosis of treated tumors ([2]; single intratumoral injection 0.1 ml of 250 mM, 1.0 M, 1.5 M, 2.0 M and 3.0 M, 48 hours posttreatment): coagulating necrosis of all treated tumors | outcome of animals after intramuscular injection ([1]; 0.2ml of 17.5% CaCl2): survived the experiment | outcome of animals after intramuscular injection [1, 5]: died in 3 hours after treatment | effect of Ca2+ solutions on cancer cells ([3]; 250 mM, 1.0 M, 1.5 M, 2.0 M and 3.0 M, Ca2+ probe fluorescence microscopy): immediate sickness or death of cancer cells | effect of tissue culture medium containing 250 mM of Ca2+ [4]: induced sickness, apoptosis and death

[Cl-].[Na+] [sodium chloride solution, sodium chloride]
treatment outcome (multiple glomus tumors): did not result in successful treatment | average necrosis of all treated tumors ([2]; 3.0 M solution): 30%±10 | minimal effective treatment concentration ([2]; Na+ alone or in combination, intratumoral injection, room temperature, listed as Na^+ solution): 2.0 M | occurrence of tumor necrosis [2]: necrosis occurred in all tumors | average necrosis of all treated tumors ([2]; single intratumoral injection 0.1 mL of 5.0479 M solution): 90%± 5 | average necrosis of all treated tumors ([2]; single intratumoral injection 0.1 mL of 5.0479 M solution, listed as Na^+ solution): 90%±5 | treatment outcome (liver tumor): none of the tumors were successfully treated | outcome of animals after intramuscular injection [1, 5]: survived the experiment | time to kill MCF7 cells ([3]; 5.0479 M of Na+ solution alone): 20 ± 4 s
